Measurements: patent publication US4347254A, “Tricyclic cage compounds, their synthesis and use as antiviral agents” (Sumitomo Chemical Company, Limited, priority 1978, dated 1982)
Where “and” joins values, the source holds several entries; their conditions need not be identical. Identical values can stand only once. Like-named read-outs stand apart in the source and are kept apart here.

Legend:
[1] = Cytotoxicity in host cells by microscopic examination and retardation of cell growth rate; assay type: cell-based; details: dog; MDCK cells; hydrochloride; read-out: MCC (minimum cytotoxic concentration)
Procedure: Virus (Influenza A/PR/8/34 (HO,Nl) strain) and cell culture (MDCK cells) were used in this study and were grown in Earle-based Eagle-MEM containing 2.5 mg/ml of NaHCO3 and 10% fetal calf serum. Maintenance medium was Eagle's MEM containing 2.5 mg/ml NaHCO3, 0.1% bovine serum albumin and 20 μg/ml Tnypsin.
After washing MDCK Cell monolayers with PBS(-), maintenance medium containing 10^3 TCID50 of virus the drug was added to each culture tube and these tubes were then incubated at 34° C. for 3 days.
Antiviral effects and cytotoxicities of the test compounds were tested against influenza virus by the tube dilution assay.
Cytotoxicity was determined by microscopic examination and retardation of cell growth rate of host cell, and represented by minimum cytotoxicic concentration (MCC, μg/ml).

[2] = Acute toxicity: mortality after subcutaneous injection; assay type: in vivo, male dd-strain mice; design: key to appearance of hyperactivity / clonic convulsion: ±: appearance of hyperactivity; +: appearance of clonic convulsion; details: mice
Procedure: Six male dd-strain mice, weighing 25±3 g, were used in each group. Test drugs were injected subcutaneously (0.2 ml/10 g).
Mortality at the 3rd day after subcutaneous injection:-
^(*1) Number of deaths/Number of animals used.

[3] = test system: catalepsy induced by haloperidol; assay: Effects on the catalepsy induced by haloperidol (anti-catalepsy activity); assay type: in vivo, male dd-strain mice; details: for Number of showing anti-catalepty activity/Number of total animal: 0.5 hour after test drug, haloperidol 7 mg/kg s.c., hydrochloride
Procedure: Pharmcol., 22, 546-547 (1970)" or "J. May et al., Psychopharmcol., 24, 296-307 (1972)".
Effects on the catalepsy induced by haloperidol:
Six male dd-strain mice, weighing 25±3 g, were used in each group. Test drugs were injected intraperitoneally or subcutaneously 3.5 hours after the injection of haloperidol (7 mg/kg, s.c.).
The catalepsy was measured at 0.5 hour after injection of test drugs according to the method of Wirth et al. with slight modification [cf. Wirth, R., Gosswald, R., Horlein, V., Risse, K. H. and Kreiskott, H. Archs int. Pharmacodyn., Ther., 115, 1-31 (1958)].

[4] = test system: Influenza A/PR/8/34 (HO,Nl) strain; assay: microbe, parasite or virus in culture; assay type: cell-based, Influenza A virus; details: for minimal effective concentration: Influenza A virus, PR/8, 72 h, 34° C., 3 days, read-out: MEC (minimum effective concentration); for Chemotherapeutic index (MCC/MEC): 4320 min
[5] = test system: Influenza A/PR/8/34 (HO,Nl) strain; assay type: in vivo, Influenza A virus; ICR male mice; details: for LLS (lung lesion score): score 0-5, control 4.7; for efficacy compared with amantadine: as indicated in Table III
[6] = test system: central nervous system (CNS); details: known drug; cited from earlier work
[7] = 1000 mg/kg s.c., hydrochloride (29-1: not hydrochloride)
[8] = hydrochloride (29-1: not hydrochloride)

N[C@@H]1[C@H]2CC[C@H]3[C@@H]1CO[C@H]3C2 (relative stereo) [Compound No. 12-4, 5-Oxa-endo-2-amino-isotwistane]
MCC at 72 h [1]: 100 µg/mL
Mortality rate at the 3rd day after subcutaneous injection (Number of deaths/Number of animals used) ([2]; 2000 mg/kg s.c., hydrochloride): 0/6
appearance of hyperactivity / clonic convulsion ([2]; 2000 mg/kg s.c., hydrochloride): ±
Number of showing anti-catalepty activity/Number of total animal ([3]; 500 mg/kg s.c.): 0/6
minimal effective concentration ([4]; MDCK cells, hydrochloride): 50 µg/mL
Chemotherapeutic index (MCC/MEC) ([4]; MDCK cells, hydrochloride): 2

N[C@H]1[C@H]2CC[C@H]3[C@@H]1CO[C@H]3C2 (relative stereo) [Compound No. 12-9, 5-Oxa-exo-2-amino-isotwistane]
MCC at 72 h [1]: 100 µg/mL
minimal effective concentration ([4]; MDCK cells, hydrochloride): 50 µg/mL
Chemotherapeutic index (MCC/MEC) ([4]; MDCK cells, hydrochloride): 2

CN[C@@H]1[C@H]2CC[C@H]3[C@@H]1CO[C@H]3C2 (relative stereo) [Compound No. 18-3, 5-Oxa-endo-2-N-methylamino-isotwistane]
MCC at 72 h [1]: > 200 µg/mL
appearance of hyperactivity / clonic convulsion ([2]; 1000 mg/kg s.c., hydrochloride): ±
Mortality rate at the 3rd day after subcutaneous injection (Number of deaths/Number of animals used) [2, 7]: 0/6
Number of showing anti-catalepty activity/Number of total animal ([3]; 500 mg/kg s.c.): 1/6
minimal effective concentration ([4]; MDCK cells, hydrochloride): 50 µg/mL
Chemotherapeutic index (MCC/MEC) ([4]; MDCK cells, hydrochloride): > 4

NC[C@@H]1[C@H]2CC[C@H]3[C@@H]1CO[C@H]3C2 (relative stereo) [Compound No. 25-3, 5-Oxa-endo-2-aminomethyl-isotwistane]
MCC at 72 h [1]: 100 µg/mL
Mortality rate at the 3rd day after subcutaneous injection (Number of deaths/Number of animals used) [2, 7]: 0/6
Number of showing anti-catalepty activity/Number of total animal ([3]; 500 mg/kg s.c.): 0/6
minimal effective concentration ([4]; MDCK cells, hydrochloride): 25 µg/mL
Chemotherapeutic index (MCC/MEC) ([4]; MDCK cells, hydrochloride): 4

NC[C@H]1[C@H]2CC[C@H]3[C@@H]1CO[C@H]3C2 (relative stereo) [Compound No. 67-1, exo-2-aminomethyl-5-oxa-isotwistane]
MCC at 72 h [1]: 100 µg/mL
minimal effective concentration ([4]; MDCK cells, hydrochloride): 25 µg/mL
Chemotherapeutic index (MCC/MEC) ([4]; MDCK cells, hydrochloride): 4

NC12CC3CC(CC(C3)C1)C2 [Amantadine, reference compound]
MCC at 72 h [1]: 12.5 µg/mL
Mortality rate at the 3rd day after subcutaneous injection (Number of deaths/Number of animals used) ([2]; 300 mg/kg s.c., hydrochloride): 6/6
Number of showing anti-catalepty activity/Number of total animal ([3]; 50 mg/kg s.c.): 3/6 and 2/6
antagonism of the catalepsy (in words), amantadine ([3]; at 50 mg/kg): antagonizes the catalepsy at 50 mg/kg
LLS (lung lesion score) ([5]; hydrochloride): 4.3
minimal effective concentration ([4]; MDCK cells, hydrochloride): 12.5 µg/mL
Chemotherapeutic index (MCC/MEC) ([4]; mdck): 1
CNS-effects (in words), amantadine [6]: strong effects on a central nervous system (CNS)

NC12COC3CC(CCC31)C2 (stereo not drawn) [Compound No. 12-3, 5-Oxa-3-amino-isotwistane]
MCC at 72 h [1]: 100 µg/mL
Mortality rate at the 3rd day after subcutaneous injection (Number of deaths/Number of animals used) ([2]; 705 mg/kg s.c., hydrochloride): 0/6
appearance of hyperactivity / clonic convulsion ([2]; 705 mg/kg s.c., hydrochloride): ±
Number of showing anti-catalepty activity/Number of total animal ([3]; 500 mg/kg s.c.): 2/6
LLS (lung lesion score) [5, 8]: 3.6
efficacy compared with amantadine [5]: comparable to that of amantadine
minimal effective concentration ([4]; MDCK cells, hydrochloride): 50 µg/mL
Chemotherapeutic index (MCC/MEC) ([4]; MDCK cells, hydrochloride): 2

NCC1C2CCC3C(COC13)C2 (stereo not drawn) [Compound No. 12-10]
MCC at 72 h [1]: 100 µg/mL
minimal effective concentration ([4]; MDCK cells, hydrochloride): 25 µg/mL
Chemotherapeutic index (MCC/MEC) ([4]; MDCK cells, hydrochloride): 4

CNC12COC3CC(CCC31)C2 (stereo not drawn) [Compound No. 18-2, 5-Oxa-3-N-methylamino-isotwistane]
MCC at 72 h [1]: > 200 µg/mL
Mortality rate at the 3rd day after subcutaneous injection (Number of deaths/Number of animals used) ([2]; 500 mg/kg s.c., hydrochloride): 0/6
appearance of hyperactivity / clonic convulsion ([2]; 500 mg/kg s.c., hydrochloride): ±
Number of showing anti-catalepty activity/Number of total animal ([3]; 250 mg/kg s.c.): 3/6
minimal effective concentration ([4]; MDCK cells, hydrochloride): 50 µg/mL
Chemotherapeutic index (MCC/MEC) ([4]; MDCK cells, hydrochloride): > 4

NCC12COC3CC(CCC31)C2 (stereo not drawn) [Compound No. 27-2, 5-Oxa-3-aminomethyl-isotwistane]
MCC at 72 h [1]: 200 µg/mL
Mortality rate at the 3rd day after subcutaneous injection (Number of deaths/Number of animals used) ([2]; 1190 mg/kg s.c., hydrochloride): 0/6
appearance of hyperactivity / clonic convulsion ([2]; 1190 mg/kg s.c., hydrochloride): ±
Number of showing anti-catalepty activity/Number of total animal ([3]; 500 mg/kg s.c.): 1/6
minimal effective concentration ([4]; MDCK cells, hydrochloride): 25 µg/mL
Chemotherapeutic index (MCC/MEC) ([4]; MDCK cells, hydrochloride): 8
times as safe as amantadine (by chemotherapeutic index) ([4]; compared with amantadine): 8 times

NCCCC12COC3CC(CCC31)C2 (stereo not drawn) [Compound No. 27-4, 5-Oxa-3-(ω-amino-n-propyl)-isotwistane]
MCC at 72 h [1]: 100 µg/mL
Mortality rate at the 3rd day after subcutaneous injection (Number of deaths/Number of animals used) ([2]; 250 mg/kg s.c., hydrochloride): 1/6
Mortality rate at the 3rd day after subcutaneous injection (Number of deaths/Number of animals used) ([2]; 500 mg/kg s.c., hydrochloride): 6/6
minimal effective concentration ([4]; MDCK cells, hydrochloride): 25 µg/mL
Chemotherapeutic index (MCC/MEC) ([4]; MDCK cells, hydrochloride): 4

COC(=O)C12COC3CC(CC31)C2 (stereo not drawn) [Compound No. 29-1, 5-oxa-3-methoxycarbonyl-brendane]
Mortality rate at the 3rd day after subcutaneous injection (Number of deaths/Number of animals used) [2, 7]: 0/6
LLS (lung lesion score) [5, 8]: 4.3
efficacy compared with amantadine [5]: comparable to that of amantadine

CN(C)CC12COC3CC(CCC31)C2 (stereo not drawn) [Compound No. 41-5, 5-Oxa-3-N,N-dimethylaminomethyl-isotwistane]
MCC at 72 h [1]: 100 µg/mL
minimal effective concentration ([4]; MDCK cells, hydrochloride): 50 µg/mL
Chemotherapeutic index (MCC/MEC) ([4]; MDCK cells, hydrochloride): 2

CC(N)C12COC3CC(CCC31)C2 (stereo not drawn) [Compound No. 44-1, 5-oxa-3-(α-aminoethyl)-isotwistane]
MCC at 72 h [1]: 50 µg/mL
appearance of hyperactivity / clonic convulsion ([2]; 1000 mg/kg s.c., hydrochloride): ±
Mortality rate at the 3rd day after subcutaneous injection (Number of deaths/Number of animals used) [2, 7]: 0/6
Number of showing anti-catalepty activity/Number of total animal ([3]; 250 mg/kg s.c.): 1/6
minimal effective concentration ([4]; MDCK cells, hydrochloride): 25 µg/mL
Chemotherapeutic index (MCC/MEC) ([4]; MDCK cells, hydrochloride): 2

NC1C2CC3COC1C3C2 (stereo not drawn) [Compound No. 44-3, 2-Amino-4-oxa-brendane]
MCC at 72 h [1]: 100 µg/mL
minimal effective concentration ([4]; MDCK cells, hydrochloride): 50 µg/mL
Chemotherapeutic index (MCC/MEC) ([4]; MDCK cells, hydrochloride): 2

NC1C2CCC3C(COC13)C2 (stereo not drawn) [Compound No. 44-4, 2-Amino-4-oxa-isotwistane]
MCC at 72 h [1]: 100 µg/mL
Mortality rate at the 3rd day after subcutaneous injection (Number of deaths/Number of animals used) [2, 7]: 0/6
Number of showing anti-catalepty activity/Number of total animal ([3]; 500 mg/kg s.c.): 0/6
minimal effective concentration ([4]; MDCK cells, hydrochloride): 100 µg/mL
Chemotherapeutic index (MCC/MEC) ([4]; MDCK cells, hydrochloride): 1

NCC12CSC3CC(CC31)C2 (stereo not drawn) [Compound No. 49-1, 5-thia-3-aminomethyl-brendane]
MCC at 72 h [1]: 50 µg/mL
Mortality rate at the 3rd day after subcutaneous injection (Number of deaths/Number of animals used) ([2]; 250 mg/kg s.c., hydrochloride): 0/6
appearance of hyperactivity / clonic convulsion ([2]; 250 mg/kg s.c., hydrochloride): +
Number of showing anti-catalepty activity/Number of total animal ([3]; 125 mg/kg s.c.): 1/6
minimal effective concentration ([4]; MDCK cells, hydrochloride): 25 µg/mL
Chemotherapeutic index (MCC/MEC) ([4]; MDCK cells, hydrochloride): 2

NCC12CSC3CC(CCC31)C2 (stereo not drawn) [Compound No. 53-1]
MCC at 72 h [1]: 25 µg/mL
Mortality rate at the 3rd day after subcutaneous injection (Number of deaths/Number of animals used) ([2]; 500 mg/kg s.c., hydrochloride): 3/6
minimal effective concentration ([4]; MDCK cells, hydrochloride): 12.5 µg/mL
Chemotherapeutic index (MCC/MEC) ([4]; MDCK cells, hydrochloride): 2
